Patent US20150284393A1, “METHODS FOR TREATING EYE DISORDERS” (PRISM PHARMA CO., LTD, priority 2012, published 2015)

Key:
[1] = tested on: rat model of laser-induced choroidal neovascularization; experiment: rat model of laser-induced choroidal neovascularization (CNV); format: in vivo, Brown Norway rats; details: for average CNV lesion size vs vehicle controls: bilateral intravitreal on Days 3 and 10; for anti-angiogenic or vascular disruption activity: rat model of CNV, intravitreal
Text: The objective of this study was to assess the anti-angiogenic/vascular disrupting effects of Compound A, an alpha helix mimetic β-catenin inhibitor compound, and Compound C, the active metabolite of Compound A, in a rat model of laser-induced choroidal neovascularization. Compound A is 4-(((6S,9S,9aS)-1-(benzylcarbamoyl)-2,9-dimethyl-4,7-dioxo-8-(quinolin-8-ylmethyl)octahydro-1H-pyrazino[2,1-c][1,2,4]triazin-6-yl)methyl)phenyl dihydrogen phosphate. Compound C is (6S,9S,9aS)-N-benzyl-6-(4-hydroxybenzyl)-2,9-dimethyl-4,7-dioxo-8-(quinolin-8-ylmethyl)octahydro-1H-pyrazino[2,1-c][1,2,4]triazine-1-carboxamide.
For compound A, an 80 mg/ml solution of 4-(((6S,9S,9aS)-1-(benzylcarbamoyl)-2,9-dimethyl-4,7-dioxo-8-(quinolin-8-ylmethyl)octahydro-1H-pyrazino[2,1-c][1,2,4]triazin-6-yl)methyl)phenyl dihydrogen phosphate was prepared in sterile PBS. This solution was further diluted 1:4 to make a 20 mg/ml solution. The 20 mg/ml solution was diluted 1:4 to make a 5 mg/ml solution.
For compound C, a solution containing 0.5% NaCMC and 0.5% Polysorbate 80 (Tween 80) was prepared in USP grade water. 20 mg of (6S,9S,9aS)-N-benzyl-6-(4-hydroxybenzyl)-2,9-dimethyl-4,7-dioxo-8-(quinolin-8-ylmethyl)octahydro-1H-pyrazino[2,1-c][1,2,4]triazine-1-carboxamide was dissolved in 1 ml (using displacement pipette) of USP grade PEG400 in a glass vial. Slight heating and sonication/vortexing were performed if necessary. The glass vial containing the 20 mg/ml compound C solution was placed on a magnetic stir plate and an equal volume (1 ml) of the CMC/Tween 80 solution was added to the compound C/PEG400 solution (slowly in drop-wise fashion during continuous mixing with a stir bar). The resultant formulation was a clear solution containing 10 mg/ml compound C, 50% PEG400, 0.25% NaCMC, and 0.25% Tween 80.
Laser application to produce CNV lesions. Animals were dilated with 1% Cyclogyl solution and protected from light. Following observable dilation, the animals were sedated with ketamine/xylazine. The fundus of sedated animals was observed and recorded using a Micron III small animal funduscope (Phoenix Research). Laser treatments were performed using a thermal laser which is connected through the Micron III custom laser attachment. A total of 3 lesions per eye were placed using a wavelength of 520 nm.
Fundus images were recorded to confirm that the laser had successfully produced a bubble through the Bruch's membrane. It was expected that 5-10% of all laser spots would not develop any quantifiable CNV.
Intravitreal injections. Animals were anesthetized with ketamine/xylazine and the test compound was then injected in a volume of 5 μl into the vitreous through the pars plana using a Hamilton syringe and a 32 gauge needle. Following injection, the animals received an equal amount of topical antibiotic ointment on both eyes. Any eyes displaying signs of hemorrhage following laser application or intravitreal injection were excluded from analysis.
Fluorescein angiography. Animals were anesthetized with ketamine/xylazine and then received an IP injection of 10% Fluorescein Sodium at 1 μl/gram of body weight. Fundus images were then captured as 8-bitt TIFF files using the Micron III and exciter/barrier filters for a target wavelength of 488 nm. Standard color fundus photos were also captured for each eye.
Imaging and lesion quantification. All TIFF images were quantified using computerized image-analysis software (ImageJ, NIH, USA). Lesions were then individually traced free-hand in order to quantify the area in pixels and the color fundus photos were used as a reference for lesion location. Areas of avascularization in the center of lesions were excluded from area calculations. In the case of a hemorrhage or two lesions overlapping these lesions were excluded from analysis.
Statistical Analyses. Statistical Analyses were performed with Graphpad Prism software (version 5) using one-way analysis of variance (ANOVA) with a Tukey's post-hoc test for significance.
Animals. […]

[2] = tested on: rat model of proliferative vitreoretinopathy (PVR) following retinal detachment; experiment: rat model of proliferative vitreoretinopathy (PVR) following retinal detachment; format: in vivo, Long Evans rats
Text: The objective of this study was to assess the anti-fibrotic efficacy of Compound A, an alpha helix mimetic β-catenin inhibitor compound, in a rat model of proliferative vitreoretinopathy (PVR) following retinal detachment. Compound A is 4-(((6S,9S,9aS)-1-(benzylcarbamoyl)-2,9-dimethyl-4,7-dioxo-8-(quinolin-8-ylmethyl)octahydro-1H-pyrazino[2,1-c][1,2,4]triazin-6-yl)methyl)phenyl dihydrogen phosphate.
The well defined normal consequences of retinal detachment in this animal model are the hyperproliferation of retinal glial cells (primarily Muller cells), the recruitment of immune cells, and the formation of glial scars. An effective treatment would result in less glial scarring.
Retinal detachments were created by infusing a dilute solution (0.25%) of Healon into the subretinal space of the right eyes in 16 Long Evans rats. Twenty (20) mg/ml of Compound A in 5 microliters were injected intravitreally immediately after the detachment surgery in 8 animals. The other 8 animals received an intravitreal injection of the vehicle as a control. The left eyes served as naive controls. Seven days after detachment, settling of the retina occurs causing folds to form in the retina. All animals were euthanized using CO2, 7 days after retinal detachment.
Following euthanasia, the retinas were fixed in 4% paraformaldehyde for 24 hours. Three retinal regions approximately 3 mm square were sampled from within each detached retina as well as from control retinas. The retinas were embedded in agarose and vibratomed at 100 microns in thickness. Sections were immunolabeled with antibodies to intermediate filament proteins (vimentin) and proliferating cells (phosphohistone H3). A marker for immune cells (isolectin B4) and a nuclear stain (Hoescht) was also used. All 4 probes were added to the same sections (i.e. quadruple labeling).
The sections were imaged using an Olympus FV1000 confocal microscope. Digital images were aquired and used to determine 1) the number and size of subretinal glial scars 2) the number of dividing cells and their cell type e.g. of immune or glial origin 3) whether microglia were “activated” and 4) if macrophages were present.
The data were analyzed using a two-tailed T-test. Mean differences with a P values less than 0.05 were considered significant.
Scar frequency was calculated by dividing the total number of scars noted in each retina by the total area examined. The average scar size/length was calculated by dividing the total scar length in a given retina by the total number of scars counted in that retina.
Immunohistochemistry. Qualitative assessment of animals (4 saline and 4 Compound A treated) were evaluated for glial scarring, cell proliferation, and immune cell infiltrates. Three retinal regions from rats 5-8 (PVR+saline) and 13-16 (PVR+Compound A) were excised from the eye, sectioned, and labeled with antibodies (˜25 sections from each eye were surveyed).

C[C@H]1[C@H]2N(C(=O)CN(C)N2C(=O)NCc2ccccc2)[C@@H](Cc2ccc(OP(=O)(O)O)cc2)C(=O)N1Cc1cccc2cccnc12 [Compound A, 4-(((6S,9S,9aS)-1-(benzylcarbamoyl)-2,9-dimethyl-4,7-dioxo-8-(quinolin-8-ylmethyl)octahydro-1H-pyrazino[2,1-c][1,2,4]triazin-6-yl)methyl)phenyl dihydrogen phosphate]
average CNV lesion size vs vehicle controls ([1]; Day 15, 400 μg, p<0.01, FIG. 4A): statistically significant
average CNV lesion size vs vehicle controls ([1]; Day 22, 100 μg, p<0.01, FIG. 4B): demonstrated significance
anti-angiogenic or vascular disruption activity [1]: demonstrated efficacy
CNV lesion size, dose effect ([1]; two higher tested doses (100 μg or 400 μg), 25 μg not significant): demonstrated statistical significance
dividing immune cells (immune cell response) following retinal detachment ([2]; 20 mg/ml in 5 microliters intravitreally immediately after detachment, 7 days after detachment, vs vehicle, FIG. 1A): did not have any effect
number of Muller cells/mm ([2]; 20 mg/ml in 5 microliters intravitreally, 7 days after detachment, two-tailed T-test, P<0.05 significant, FIG. 1C): significantly affected
increase in number of proliferating glial cells following retinal detachment ([2]; 20 mg/ml in 5 microliters intravitreally, 7 days after detachment, vs vehicle, FIG. 1B): largely attenuated
increase in number of proliferating Muller cells following retinal detachment ([2]; 20 mg/ml in 5 microliters intravitreally, 7 days after detachment, vs vehicle, FIG. 1C): largely attenuated
increase in number of proliferating astrocytes following retinal detachment ([2]; 20 mg/ml in 5 microliters intravitreally, 7 days after detachment, vs vehicle, FIG. 1D): largely attenuated
frequency of glial scar formation (total number of scars / total area examined) ([2]; 20 mg/ml in 5 microliters intravitreally, 7 days after detachment, vs vehicle, FIG. 2A): significantly reduced
average scar size/length (total scar length / number of scars) ([2]; 20 mg/ml in 5 microliters intravitreally, 7 days after detachment, vs vehicle, FIG. 2B): significant reduction
subretinal gliosis (glial scarring), vimentin labeled Muller cell processes extending into the subretinal space, immunohistochemistry ([2]; qualitative assessment, 4 treated animals (rats 13-16) vs 4 saline, FIGS. 3C-3D): no glial scarring was noted

C[C@H]1[C@H]2N(C(=O)CN(C)N2C(=O)NCc2ccccc2)[C@@H](Cc2ccc(O)cc2)C(=O)N1Cc1cccc2cccnc12 [Compound C, (6S,9S,9aS)-N-benzyl-6-(4-hydroxybenzyl)-2,9-dimethyl-4,7-dioxo-8-(quinolin-8-ylmethyl)octahydro-1H-pyrazino[2,1-c][1,2,4]triazine-1-carboxamide]
size of the lesions ([1]; 50 μg intravitreal): significant impact
average CNV lesion size vs vehicle controls ([1]; Day 15, 50 μg, p<0.05, FIG. 4A): statistically significant
anti-angiogenic or vascular disruption activity [1]: demonstrated efficacy
